In ChEMBL document CHEMBL4507262, “Data for DCP probe A-1596586” (2021):

Experiments:
[1] = biological target: T1, Alpha-2A adrenergic receptor (Homo sapiens) (UniProt P08913); experiment: Alpha2A (h) Eurofins-Cerep binding assay; parameters: ligand concentration 1 nM; settings: filed as antagonist, Compound concentration 10.0 uM
T1 sequence (whole entry): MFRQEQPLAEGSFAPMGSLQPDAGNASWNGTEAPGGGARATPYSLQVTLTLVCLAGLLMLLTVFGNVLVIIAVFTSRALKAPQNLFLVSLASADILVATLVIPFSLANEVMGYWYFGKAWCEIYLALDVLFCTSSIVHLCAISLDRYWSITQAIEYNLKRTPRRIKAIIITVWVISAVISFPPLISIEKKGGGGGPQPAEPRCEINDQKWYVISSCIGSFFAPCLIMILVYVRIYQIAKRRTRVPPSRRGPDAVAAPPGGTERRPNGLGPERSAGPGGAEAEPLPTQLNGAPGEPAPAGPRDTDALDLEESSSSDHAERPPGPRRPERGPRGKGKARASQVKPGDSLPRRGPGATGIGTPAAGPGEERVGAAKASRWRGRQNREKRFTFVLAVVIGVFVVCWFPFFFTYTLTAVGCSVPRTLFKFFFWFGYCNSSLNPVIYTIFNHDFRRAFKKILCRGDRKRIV

[2] = biological target: Cyclin-dependent kinase 2 homolog (Plasmodium falciparum (isolate 3D7)) (UniProt P61075); settings: Compound concentration 1000.0 nM
[3] = biological target: Serine/threonine-protein kinase SIK3 (Homo sapiens) (UniProt Q9Y2K2); settings: Compound concentration 1000.0 nM
[4] = biological target: Serine/threonine-protein kinase PAK 4 (Homo sapiens) (UniProt O96013); settings: Compound concentration 1000.0 nM
[5] = tested on: Epidermal growth factor receptor (Homo sapiens), P00533 [UNDEFINED MUTATION]; settings: Compound concentration 1000.0 nM
[6] = biological target: Serine/threonine-protein kinase PknB (Mycobacterium tuberculosis) (UniProt P9WI81); settings: Compound concentration 1000.0 nM
[7] = biological target: Calcium/calmodulin-dependent protein kinase type II subunit alpha (Homo sapiens) (UniProt Q9UQM7); settings: Compound concentration 1000.0 nM
[8] = biological target: 5-hydroxytryptamine receptor 4 (Homo sapiens) (UniProt Q13639); experiment: 5-HT4 e (h) Eurofins-Cerep binding assay; parameters: ligand concentration 0.3 nM; settings: filed as antagonist, Compound concentration 10.0 uM
5-hydroxytryptamine receptor 4 (Homo sapiens), sequence (Q13639 whole entry): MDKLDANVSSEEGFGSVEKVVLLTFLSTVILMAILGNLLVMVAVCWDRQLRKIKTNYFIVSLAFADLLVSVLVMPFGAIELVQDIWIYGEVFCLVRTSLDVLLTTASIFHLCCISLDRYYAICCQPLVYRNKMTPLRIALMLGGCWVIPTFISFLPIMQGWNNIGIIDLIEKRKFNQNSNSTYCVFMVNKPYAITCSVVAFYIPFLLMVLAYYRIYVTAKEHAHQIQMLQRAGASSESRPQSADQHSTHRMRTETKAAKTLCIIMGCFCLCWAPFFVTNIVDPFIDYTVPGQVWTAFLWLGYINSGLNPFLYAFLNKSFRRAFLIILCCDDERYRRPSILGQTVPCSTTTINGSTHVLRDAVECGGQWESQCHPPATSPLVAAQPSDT

[9] = biological target: Membrane-associated tyrosine- and threonine-specific cdc2-inhibitory kinase (Homo sapiens) (UniProt Q99640); settings: Compound concentration 1000.0 nM
[10] = biological target: Mitogen-activated protein kinase kinase kinase 9 (Homo sapiens) (UniProt P80192); settings: Compound concentration 1000.0 nM
[11] = biological target: Casein kinase I isoform alpha (Homo sapiens) (UniProt P48729); settings: Compound concentration 1000.0 nM
Casein kinase I isoform alpha (Homo sapiens), sequence (P48729 2-337 limits assumed): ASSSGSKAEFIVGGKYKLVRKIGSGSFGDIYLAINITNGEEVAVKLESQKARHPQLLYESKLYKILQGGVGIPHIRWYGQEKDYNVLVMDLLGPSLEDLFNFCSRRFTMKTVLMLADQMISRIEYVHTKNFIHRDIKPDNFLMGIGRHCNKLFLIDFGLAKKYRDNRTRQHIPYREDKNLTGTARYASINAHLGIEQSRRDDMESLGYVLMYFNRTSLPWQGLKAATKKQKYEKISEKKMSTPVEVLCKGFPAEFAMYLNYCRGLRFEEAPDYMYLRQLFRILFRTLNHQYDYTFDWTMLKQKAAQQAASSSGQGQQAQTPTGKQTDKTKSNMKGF

[12] = biological target: Activin receptor type-2B (Homo sapiens) (UniProt Q13705); settings: Compound concentration 1000.0 nM
[13] = biological target: Serine/threonine-protein kinase OSR1 (Homo sapiens) (UniProt O95747); settings: Compound concentration 1000.0 nM
Serine/threonine-protein kinase OSR1 (Homo sapiens), sequence (O95747 2-527 limits assumed): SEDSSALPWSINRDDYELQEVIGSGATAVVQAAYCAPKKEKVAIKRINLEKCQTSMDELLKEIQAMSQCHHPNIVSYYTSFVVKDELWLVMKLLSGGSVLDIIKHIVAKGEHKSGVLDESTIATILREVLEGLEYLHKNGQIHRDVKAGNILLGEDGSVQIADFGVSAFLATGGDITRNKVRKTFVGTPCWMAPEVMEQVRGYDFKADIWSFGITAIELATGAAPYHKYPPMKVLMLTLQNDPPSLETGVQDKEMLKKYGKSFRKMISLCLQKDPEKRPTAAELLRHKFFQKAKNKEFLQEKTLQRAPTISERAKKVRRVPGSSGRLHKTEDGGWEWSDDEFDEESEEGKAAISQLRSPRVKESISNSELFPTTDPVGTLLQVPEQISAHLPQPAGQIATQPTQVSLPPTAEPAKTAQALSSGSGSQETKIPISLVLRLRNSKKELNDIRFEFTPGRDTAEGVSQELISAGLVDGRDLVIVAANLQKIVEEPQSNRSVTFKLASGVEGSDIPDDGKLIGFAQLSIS

[14] = tested on: Phosphatidylinositol 4,5-bisphosphate 3-kinase catalytic subunit alpha isoform (Homo sapiens), P42336 [C420R]; settings: Compound concentration 1000.0 nM
[15] = biological target: Mitogen-activated protein kinase kinase kinase 1 (Homo sapiens) (UniProt Q13233); settings: Compound concentration 1000.0 nM
Mitogen-activated protein kinase kinase kinase 1 (Homo sapiens), sequence (Q13233 whole entry): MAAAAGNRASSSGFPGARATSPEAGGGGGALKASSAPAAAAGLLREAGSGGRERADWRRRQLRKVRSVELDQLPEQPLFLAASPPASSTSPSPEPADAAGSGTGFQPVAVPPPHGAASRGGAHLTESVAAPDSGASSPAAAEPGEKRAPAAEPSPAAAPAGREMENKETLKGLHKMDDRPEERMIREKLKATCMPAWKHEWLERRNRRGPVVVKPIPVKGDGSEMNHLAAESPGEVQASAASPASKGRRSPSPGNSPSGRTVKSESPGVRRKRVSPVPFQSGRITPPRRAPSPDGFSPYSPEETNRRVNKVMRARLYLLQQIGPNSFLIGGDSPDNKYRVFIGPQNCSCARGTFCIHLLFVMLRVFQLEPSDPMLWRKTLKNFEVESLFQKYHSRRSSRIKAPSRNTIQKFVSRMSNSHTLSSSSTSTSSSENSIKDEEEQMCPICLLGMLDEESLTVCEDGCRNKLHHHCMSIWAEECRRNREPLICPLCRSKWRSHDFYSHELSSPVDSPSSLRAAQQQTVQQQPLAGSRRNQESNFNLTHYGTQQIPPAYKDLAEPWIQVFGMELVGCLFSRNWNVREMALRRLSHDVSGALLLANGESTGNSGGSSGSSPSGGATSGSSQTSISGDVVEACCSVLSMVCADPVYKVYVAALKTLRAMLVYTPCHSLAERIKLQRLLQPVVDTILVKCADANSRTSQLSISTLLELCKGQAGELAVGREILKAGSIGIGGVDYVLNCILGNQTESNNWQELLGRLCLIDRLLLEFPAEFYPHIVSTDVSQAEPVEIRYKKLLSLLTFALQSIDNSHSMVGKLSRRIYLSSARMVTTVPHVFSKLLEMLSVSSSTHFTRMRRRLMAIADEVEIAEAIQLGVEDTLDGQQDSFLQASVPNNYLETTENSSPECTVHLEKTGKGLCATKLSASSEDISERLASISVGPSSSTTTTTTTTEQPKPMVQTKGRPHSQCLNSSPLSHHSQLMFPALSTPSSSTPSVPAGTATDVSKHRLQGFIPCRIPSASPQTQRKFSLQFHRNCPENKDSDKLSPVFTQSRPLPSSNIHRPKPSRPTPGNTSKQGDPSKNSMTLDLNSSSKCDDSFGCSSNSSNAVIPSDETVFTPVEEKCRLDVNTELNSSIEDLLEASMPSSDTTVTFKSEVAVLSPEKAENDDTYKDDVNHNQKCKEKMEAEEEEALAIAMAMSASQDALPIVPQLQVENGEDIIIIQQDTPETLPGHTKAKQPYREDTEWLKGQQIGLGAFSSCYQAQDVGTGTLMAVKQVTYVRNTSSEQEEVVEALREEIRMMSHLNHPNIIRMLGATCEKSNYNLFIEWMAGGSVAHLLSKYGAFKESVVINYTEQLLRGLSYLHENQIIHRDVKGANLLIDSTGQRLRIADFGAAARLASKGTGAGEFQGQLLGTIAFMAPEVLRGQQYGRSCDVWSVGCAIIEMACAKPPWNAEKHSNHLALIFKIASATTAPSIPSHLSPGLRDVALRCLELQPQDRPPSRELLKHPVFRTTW

[16] = biological target: Inhibitor of nuclear factor kappa-B kinase subunit epsilon (Homo sapiens) (UniProt Q14164); settings: Compound concentration 1000.0 nM
[17] = biological target: Serine/threonine-protein kinase PLK1 (Homo sapiens) (UniProt P53350); settings: Compound concentration 1000.0 nM
Serine/threonine-protein kinase PLK1 (Homo sapiens), sequence (P53350 whole entry): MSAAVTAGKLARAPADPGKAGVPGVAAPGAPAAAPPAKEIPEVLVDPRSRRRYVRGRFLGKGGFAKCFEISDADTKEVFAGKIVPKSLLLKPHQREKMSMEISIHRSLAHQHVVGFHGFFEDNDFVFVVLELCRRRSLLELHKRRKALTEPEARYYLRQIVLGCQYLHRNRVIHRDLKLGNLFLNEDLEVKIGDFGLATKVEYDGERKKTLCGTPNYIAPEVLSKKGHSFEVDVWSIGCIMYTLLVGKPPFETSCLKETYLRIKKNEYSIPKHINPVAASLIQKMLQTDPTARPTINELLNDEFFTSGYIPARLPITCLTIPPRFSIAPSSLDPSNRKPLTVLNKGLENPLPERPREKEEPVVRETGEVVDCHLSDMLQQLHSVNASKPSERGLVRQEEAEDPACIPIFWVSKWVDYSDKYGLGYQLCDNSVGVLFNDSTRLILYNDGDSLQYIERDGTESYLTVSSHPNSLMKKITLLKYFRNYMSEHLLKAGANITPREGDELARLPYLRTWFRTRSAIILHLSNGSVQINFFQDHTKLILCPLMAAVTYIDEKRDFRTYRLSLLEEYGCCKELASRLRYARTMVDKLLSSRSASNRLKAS

[18] = biological target: Mitogen-activated protein kinase 12 (Homo sapiens) (UniProt P53778); settings: Compound concentration 1000.0 nM
[19] = biological target: Dual specificity mitogen-activated protein kinase kinase 1 (Homo sapiens) (UniProt Q02750); settings: Compound concentration 1000.0 nM
[20] = biological target: Serine/threonine-protein kinase PAK 2 (Homo sapiens) (UniProt Q13177); settings: Compound concentration 1000.0 nM
[21] = biological target: Beta-2 adrenergic receptor (Homo sapiens) (UniProt P07550); experiment: Beta2 (h) Eurofins-Cerep binding assay; parameters: ligand concentration 0.3 nM; settings: filed as antagonist, Compound concentration 10.0 uM
Beta-2 adrenergic receptor (Homo sapiens), sequence (P07550 whole entry, looked up): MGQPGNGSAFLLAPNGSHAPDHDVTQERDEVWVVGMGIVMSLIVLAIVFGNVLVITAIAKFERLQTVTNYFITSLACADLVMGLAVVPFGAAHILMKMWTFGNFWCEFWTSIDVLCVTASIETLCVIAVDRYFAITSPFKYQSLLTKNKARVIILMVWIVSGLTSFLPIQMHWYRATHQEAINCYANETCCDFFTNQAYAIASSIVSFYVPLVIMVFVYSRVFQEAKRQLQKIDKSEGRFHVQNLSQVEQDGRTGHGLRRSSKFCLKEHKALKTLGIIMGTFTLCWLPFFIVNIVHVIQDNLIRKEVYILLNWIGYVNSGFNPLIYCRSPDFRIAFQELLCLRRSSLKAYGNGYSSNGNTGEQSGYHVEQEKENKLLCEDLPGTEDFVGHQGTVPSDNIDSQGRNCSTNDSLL

[22] = biological target: Calcium/calmodulin-dependent protein kinase type II subunit beta (Homo sapiens) (UniProt Q13554); settings: Compound concentration 1000.0 nM
Calcium/calmodulin-dependent protein kinase type II subunit beta (Homo sapiens), sequence (Q13554 whole entry): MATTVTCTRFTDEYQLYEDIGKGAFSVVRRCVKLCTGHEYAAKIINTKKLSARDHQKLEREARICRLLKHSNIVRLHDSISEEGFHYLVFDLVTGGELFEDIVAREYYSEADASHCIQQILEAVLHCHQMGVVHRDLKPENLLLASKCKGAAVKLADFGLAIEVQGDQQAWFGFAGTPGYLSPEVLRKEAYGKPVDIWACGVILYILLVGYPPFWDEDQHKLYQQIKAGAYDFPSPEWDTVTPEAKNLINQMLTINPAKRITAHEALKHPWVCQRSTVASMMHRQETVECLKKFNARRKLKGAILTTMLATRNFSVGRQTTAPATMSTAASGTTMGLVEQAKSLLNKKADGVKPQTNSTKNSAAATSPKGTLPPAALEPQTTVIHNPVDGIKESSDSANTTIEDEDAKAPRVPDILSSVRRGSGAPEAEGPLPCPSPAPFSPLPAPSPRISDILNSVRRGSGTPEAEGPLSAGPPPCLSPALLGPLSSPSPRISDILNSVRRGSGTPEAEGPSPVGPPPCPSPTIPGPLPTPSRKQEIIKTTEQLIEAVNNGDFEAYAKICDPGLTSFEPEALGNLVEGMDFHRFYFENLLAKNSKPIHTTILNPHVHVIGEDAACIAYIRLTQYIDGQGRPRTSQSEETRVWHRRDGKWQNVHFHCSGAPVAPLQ

[23] = biological target: NUAK family SNF1-like kinase 2 (Homo sapiens) (UniProt Q9H093); settings: Compound concentration 1000.0 nM
[24] = biological target: Serine/threonine-protein kinase 16 (Homo sapiens) (UniProt O75716); settings: Compound concentration 1000.0 nM
[25] = biological target: Sulfonylurea receptors; K-ATP channels (Rattus norvegicus) (UniProt Q63563+P70673+Q63664+Q09429); experiment: KATP channel Eurofins-Cerep binding assay; format: protein-complex assay; parameters: ligand concentration 0.1 nM; settings: filed as antagonist, Compound concentration 10.0 uM
[26] = tested on: Phosphatidylinositol 4,5-bisphosphate 3-kinase catalytic subunit alpha isoform (Homo sapiens), P42336 [H1047L]; settings: Compound concentration 1000.0 nM
[27] = biological target: T1, Alpha-2A adrenergic receptor (Homo sapiens); settings: Compound concentration 10.0 uM
[28] = biological target: Serine/threonine-protein kinase tousled-like 1 (Homo sapiens) (UniProt Q9UKI8); settings: Compound concentration 1000.0 nM
[29] = biological target: Cyclin-dependent kinase-like 5 (Homo sapiens) (UniProt O76039); settings: Compound concentration 1000.0 nM
[30] = biological target: Casein kinase I isoform delta (Homo sapiens) (UniProt P48730); settings: Compound concentration 1000.0 nM
[31] = tested on: Receptor-type tyrosine-protein kinase FLT3 (Homo sapiens), P36888 [R834Q]; settings: Compound concentration 1000.0 nM
[32] = biological target: Substance-P receptor (Homo sapiens) (UniProt P25103); experiment: NK1 (h) Eurofins-Cerep binding assay; parameters: ligand concentration 0.05 nM; settings: filed as agonist, Compound concentration 10.0 uM
[33] = biological target: L-type Ca2+ channel (diltiazem site, benzothiazepines) (Rattus norvegicus, UniProt P22002+P27732+Q02485); experiment: Ca2+ channel (L, diltiazem site) (benzothiazepines) Eurofins-Cerep binding assay; format: protein assay; parameters: incubation time 120 min, incubation temperature RT, ligand concentration 15 nM; settings: rat cerebral cortex, probe [3H]diltiazem (15 nM), compound concentration 10 uM, read-out: % Inhibition of Control Specific Binding (Mean n=2)
[34] = biological target: Vascular endothelial growth factor receptor 3 (Homo sapiens) (UniProt P35916); settings: Compound concentration 1000.0 nM
[35] = biological target: D(2) dopamine receptor (Homo sapiens) (UniProt P14416); experiment: D2S (h) Eurofins-Cerep binding assay; parameters: ligand concentration 0.3 nM; settings: filed as antagonist, Compound concentration 10.0 uM
D(2) dopamine receptor (Homo sapiens), sequence (P14416 whole entry): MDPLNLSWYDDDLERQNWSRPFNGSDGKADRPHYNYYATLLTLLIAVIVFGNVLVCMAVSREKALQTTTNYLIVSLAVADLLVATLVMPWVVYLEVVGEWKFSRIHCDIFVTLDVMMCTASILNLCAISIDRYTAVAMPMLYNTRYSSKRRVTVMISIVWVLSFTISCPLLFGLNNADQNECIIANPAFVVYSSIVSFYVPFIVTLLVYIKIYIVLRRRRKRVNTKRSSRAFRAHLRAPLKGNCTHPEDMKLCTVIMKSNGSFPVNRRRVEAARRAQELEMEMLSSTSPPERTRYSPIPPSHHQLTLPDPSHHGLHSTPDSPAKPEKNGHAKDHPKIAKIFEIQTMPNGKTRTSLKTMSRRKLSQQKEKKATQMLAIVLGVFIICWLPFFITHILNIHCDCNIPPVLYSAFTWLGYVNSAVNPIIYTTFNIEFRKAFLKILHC

[36] = biological target: Mitogen-activated protein kinase kinase kinase 13 (Homo sapiens) (UniProt O43283); settings: Compound concentration 1000.0 nM

Row | Structure (SMILES) | % Inhibition of Control Specific Binding (Mean n=2) [1] [%] | residual activity [2] [%] | residual activity [3] [%] | residual activity [4] [%] | residual activity [5] [%] | residual activity [6] [%] | residual activity [7] [%] | % Inhibition of Control Specific Binding (Mean n=2) [8] [%] | residual activity [9] [%] | residual activity [10] [%] | residual activity [11] [%] | residual activity [12] [%] | residual activity [13] [%] | residual activity [14] [%] | residual activity [15] [%] | residual activity [16] [%] | residual activity [17] [%] | residual activity [18] [%] | residual activity [19] [%] | residual activity [20] [%] | also measured
1 | COc1ccc2c(c1)O[C@H](c1ccc(OC)c(OC)c1)C[C@@H]2NC(=O)C1(c2ccc3c(c2)OC(F)(F)O3)CC1 [A-1596584] | 5.1 | 92 | 95 | 100 | 64 | 88 | 100 | 5.3 | 100 | 93 | 82 | 100 | 98 | 91 | 100 | 96 | 83 | 98 | 100 | 100 | % Inhibition of Control Specific Binding (Mean n=2) [21]: 11.6%; residual activity [22]: 88%; residual activity [23]: 100%; residual activity [24]: 100%; % Inhibition of Control Specific Binding (Mean n=2) [25]: 5.1%; residual activity [26]: 100%; inhibition [27]: 14.9%; residual activity [28]: 100%; residual activity [29]: 100%; residual activity [30]: 92%; residual activity [31]: 100%; % Inhibition of Control Specific Binding (Mean n=2) [32]: 92.1%; inhibition at 120 min, 10 µM [33]: -7.6%; residual activity [34]: 97%; % Inhibition of Control Specific Binding (Mean n=2) [35]: 18.7%; residual activity [36]: 91%
2 | COc1ccc2c(c1)O[C@@H](c1ccc(OC)c(OC)c1)C[C@H]2NC(=O)C1(c2ccc3c(c2)OC(F)(F)O3)CC1 [A-1596586] | 8.7 | 84 | 82 | 89 | 68 | 85 | 98 | 10.2 | 90 | 100 | 78 | 96 | 90 | 86 | 77 | 70 | 70 | 100 | 86 | 100 | % Inhibition of Control Specific Binding (Mean n=2) [21]: 7%; residual activity [22]: 69%; residual activity [23]: 76%; residual activity [24]: 81%; % Inhibition of Control Specific Binding (Mean n=2) [25]: -1.9%; residual activity [26]: 77%; inhibition [27]: 17.6%; residual activity [28]: 84%; residual activity [29]: 85%; residual activity [30]: 100%; residual activity [31]: 100%; % Inhibition of Control Specific Binding (Mean n=2) [32]: 44.4%; inhibition at 120 min, 10 µM [33]: 29.7%; residual activity [34]: 91%; % Inhibition of Control Specific Binding (Mean n=2) [35]: 27.7%; residual activity [36]: 67%
